Target: T1, human S1P1 receptor (Homo sapiens, UniProt P21453)
T1 construct: expressed in transfected cells; membranes used
Experiment: GTP γ35S binding assay for S1P1 activity
Type: biochemical
Details: activity potency from GTP γ35S binding; membranes, test compounds 0.08 to 5,000 nM, 30 min at 25° C.
Method: Compounds were synthesized and tested for S1P1 activity using the GTP γ^35S binding assay. These compounds may be assessed for their ability to activate or block activation of the human S1P1 receptor in cells stably expressing the S1P1 receptor.
GTP γ^35S binding was measured in the medium containing (mM) HEPES 25, pH 7.4, MgCl2 10, NaCl 100, dithitothreitol 0.5, digitonin 0.003%, 0.2 nM GTP γ^35S, and 5 μg membrane protein in a volume of 150 μl. Test compounds were included in the concentration range from 0.08 to 5,000 nM unless indicated otherwise. Membranes were incubated with 100 μM 5′-adenylylimmidodiphosphate for 30 min, and subsequently with 10 μM GDP for 10 min on ice. Drug solutions and membrane were mixed, and then reactions were initiated by adding GTP γ^35S and continued for 30 min at 25° C. Reaction mixtures were filtered over Whatman GF/B filters under vacuum, and washed three times with 3 mL of ice-cold buffer (HEPES 25, pH7.4, MgCl2 10 and NaCl-100). Filters were dried and mixed with scintillant, and counted for ^35S activity using a β-counter. Agonist-induced GTP γ^35S binding was obtained by subtracting that in the absence of agonist. Binding data were analyzed using a non-linear regression method. In case of antagonist assay, the reaction mixture contained 10 nM S1P in the presence of test antagonist at concentrations ranging from 0.08 to 5000 nM.

T1 sequence (P21453 whole entry): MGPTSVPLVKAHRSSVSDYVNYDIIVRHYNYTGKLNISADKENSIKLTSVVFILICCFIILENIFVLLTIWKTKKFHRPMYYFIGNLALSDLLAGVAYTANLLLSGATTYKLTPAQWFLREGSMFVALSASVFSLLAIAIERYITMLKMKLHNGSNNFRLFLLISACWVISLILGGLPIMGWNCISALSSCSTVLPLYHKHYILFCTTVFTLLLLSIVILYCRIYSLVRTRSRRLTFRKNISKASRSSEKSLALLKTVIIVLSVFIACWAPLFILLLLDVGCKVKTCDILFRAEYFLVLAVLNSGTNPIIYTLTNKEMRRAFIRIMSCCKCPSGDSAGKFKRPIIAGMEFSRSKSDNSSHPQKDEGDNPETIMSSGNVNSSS

SMILES | EC50 [µM]
CCc1ccc(OC(c2cccc(Cl)c2)c2nc(-c3ccc(CN4CC(C(=O)O)C4)cc3)no2)cc1 (stereo not drawn) [Compound 1, 1-(4-{5-[(3-chlorophenyl)(4-ethylphenoxy)methyl]-1,2,4-oxadiazol-3-yl}benzyl)azetidine-3-carboxylic acid] | 1.06
Cc1ccc(OC(c2cccc(Cl)c2)c2nc(-c3ccc(CN4CC(C(=O)O)C4)cc3)no2)cc1C (stereo not drawn) [Compound 2, 1-(4-{5-[(3-chlorophenyl)(3,4-dimethylphenoxy)methyl]-1,2,4-oxadiazol-3-yl}benzyl)azetidine-3-carboxylic acid] | 0.598
CCCc1ccc(OC(c2cccc(Cl)c2)c2nc(-c3ccc(CN4CC(C(=O)O)C4)cc3)no2)cc1 (stereo not drawn) [Compound 3, 1-(4-{5-[(3-chlorophenyl)(4-propylphenoxy)methyl]-1,2,4-oxadiazol-3-yl}benzyl)azetidine-3-carboxylic acid] | 1.1

Further molecules by falling EC50, results first:

EC50 [µM] | SMILES
0.911 | Cc1ccc(OC(c2nc(-c3ccc(CN4CC(C(=O)O)C4)cc3)no2)c2ccccc2Cl)cc1C (stereo not drawn) [Compound 4, 1-(4-{5-[(2-chlorophenyl)(3,4-dimethylphenoxy)methyl]-1,2,4-oxadiazol-3-yl}benzyl)azetidine-3-carboxylic acid]
0.336 | O=C(NCc1ccc2c(c1)OCO2)c1cc(-c2ccccc2)c(N2CCOCC2)s1 [N-(1,3-benzodioxol-5-ylmethyl)-5-morpholin-4-yl-4-phenylthiophene-2-carboxamide]
0.312 | Cc1ccc(NC(c2cccc(Cl)c2)c2nc(-c3ccc(CN4CC(C(=O)O)C4)cc3)no2)cc1C (stereo not drawn) [Compound 6, 1-[4-(5-{(3-chlorophenyl)[(3,4-dimethylphenyl)amino]methyl}-1,2,4-oxadiazol-3-yl)benzyl]azetidine-3-carboxylic acid]

— patent US8906899B2, “Azetidine derivatives as sphingosine 1-phosphate (S1P) receptor modulators” (Allergan, Inc., priority 2010, dated 2014)
